Measurements: US20070014739A1, “Compositions and methods for controlling biofilms and bacterial infections” (priority 2005, published 2007)

Assays:
S. sobrinus 6715 = test: Biofilm growth inhibition in 1 mL polycarbonate tubes; assay type: cell-based; conditions: Streptococcus sobrinus, 40 μg/mL
[1] = tested on: Clinical isolates of P. aeruginosa from cystic fibrosis patients; test: Detachment of mature biofilms on peg lids, crystal violet; assay type: cell-based; conditions: 5 ug/ml, approximately 40 hours; eighteen clinical isolates; compared to negative controls
Description: Clinical isolates of P. aeruginosa from cystic fibrosis patients were passed twice on tryptic soy agar with 5% sheep blood after retrieval from −80° C. and then grown overnight in CAMHB. After dilution of a culture to 0.5 McFarland in broth medium, 100 μl was transferred in triplicate to wells of a flat-bottom 96-well microtiter plate. Bacterial biofilms were formed by immersing the pegs of a modified polystyrene microtiter lid into this biofilm growth plate, followed by incubation at 37° C. for 20 hours with no movement.
Peg lids were rinsed three times in sterile water, placed onto flat-bottom microtiter plates containing biofilm inhibitors at 5 ug/ml in 100 μl of CAMHB per well and incubated for approximately 40 hours at 37° C.
Pegs were rinsed, placed in a 0.1% (wt/vol) crystal violet solution for 15 min, rinsed again, and dried for several hours. To solubilize adsorbed crystal violet, pegs were incubated in 95% ethanol (150 μl per well of a flat-bottom microtiter plate) for 15 min. The absorbance was read at 590 nm on a plate reader. The wells containing asiatic acid were compared to negative controls. Negative controls were prepared as stated above but without asiatic acid.

[2] = tested on: E. coli clinical strain UT189 against bladder epithelial cells; test: Binding to and invasion of bladder epithelial cells by E. coli; assay type: cell-based; conditions: 40 μg/ml, 60 minutes; separate experiments (n=4 to 7)
Description: The effect of test compounds on bacterial invasion of E. coli clinical strain UT189 was studied as described in Elsinghorst, et al. 1994, Methods Enzymol, 236:405-420; and Martinez et al., 2000, EMBO J., 19:2803-2812. Epithelial bladder cells were grown in plates. Asiatic acid, corosolic acid, or ursolic acid were added at concentrations of 10 μg/ml, 20 μg/ml, or 40 μg/ml to bacteria and epithelial cells for approximately 5, 15, 30, or 60 minutes with approximately 10^7 CFU of E. coli. Binding was assessed at time zero and invasion was assessed at approximately 5, 15, 30, or 60 minutes from completing the mixture of compound, bacteria, and epithelial cells. As a control ethanol was added to cells to a final concentration of 0.1%. The effect of bacterial viability and bacterial adherence during the infection period was evaluated according to the methods described in Martinez et al., 2000, EMBO J., 19:2803-2812.

E. coli UT189[pCOMGFP] = test: Biofilm pods (IBCs) in bladders of infected mice, intravesical compound, confocal microscopy; assay type: in vivo, Escherichia coli; conditions: vs controls
Description: The procedures in this example has been previously reported by Justice, S. et al. Differentiation and development pathways of uropathogenic Escherichia coli in urinary tract pathogenesis. PNAS, 2004, 101(5), p. 1333-1338. Briefly, E. coli UT189[pCOMGFP] was prepared after retrieval from frozen stocks by inoculating appropriately in LB medium statically for approximately 20 hours. Cells were harvested and suspended in 1 ml of PBS. Cells were diluted appropriately to achieve approximately a 10^8 CFU or 10^7 CFU input into C3H/HeN mice (2 mice per group).
Mice were deprived of water for approximately two hours. In experiment 1, all mice were anesthetized with 0.15 cc ketamine cocktail. In experiment 2, all mice were anesthetized with isofluorane. In experiment 1, urine was dispelled from the bladders and approximately 40 μg/ml of test compound or an appropriate amount of ethanol as control was introduced into the bladders via catheterization of the urethra using a tubing coated tuberculin syringe. 30 minutes was allowed to elapse. In experiment 2, bladders were not pre-incubated with test compounds. Bladders were then expelled and an inoculum of 10^8 CFU (Experiment 1) or 10^7 CFU (Experiment 2) of E. coli containing 40 μg/ml of test compound or equivalent amount of ethanol as controls were introduced into the bladders as indicated above.
In experiment 1 five hours elapsed and in experiment 2 six hours elapsed, and then mice were anesthetized and sacrificed appropriately. The bladders were removed, bisected, stretched, and fixed in 3% paraformaldehyde for 1 hour at room temperature. Bladders were then permeabilized in 0.01% Triton/PBS for 10 minutes and counter stained with TOPRO3 (Molecular Probes) for 10 minutes for visualization by confocal microscopy. Bladders were mounted on Prolong antifade (Molecular Probes).

[3] = tested on: Haemophilus influenzae (ATCC 10211); test: Antibacterial effect (MIC), NCCLS procedures; assay type: cell-based; conditions: ATCC10211, studied at 64 μg/mL, read-out: MIC (minimal inhibitory concentration)
Description: (§1) Using the appropriate NCCLS procedures, the antibacterial effect of asiatic acid on Haemophilus influenzae (ATCC 10211), E. coli (ATCC 25922), and P. aeruginosa (ATCC 27853) was studied at 64 μg/mL.

[4] = tested on: P. aeruginosa (ATCC 27853); test: Antibacterial effect (MIC), NCCLS procedures; assay type: cell-based; conditions: Pseudomonas aeruginosa, ATCC27853; studied at 64 μg/mL; read-out: MIC (minimal inhibitory concentration)
Description: as §1

E. coli (ATCC 25922) = test: Antibacterial effect (MIC), NCCLS procedures; assay type: cell-based; conditions: Escherichia coli, ATCC25922; studied at 64 μg/mL; read-out: MIC (minimal inhibitory concentration)
Description: as §1

E. coli UTI89[pCOMGFP] = test: Bladder colonization (CFU) in infected mice, oral treatment; assay type: in vivo, Escherichia coli; conditions: C3H/HeN mice, approximately 2 days after inoculation
Description: Briefly, E. coli UTI89[pCOMGFP] was prepared after retrieval from frozen stocks by inoculating appropriately in LB medium statically for approximately 20 hours. Cells were harvested and suspended in 1 ml of PBS. Cells were diluted appropriately to achieve approximately 10^7 CFU input into C3H/HeN mice.
Mice were deprived of water for approximately two hours. All mice were anesthetized with isofluorane. Urine was dispelled from the bladders and an inoculum of approximately 10^7 CFU of E. coli were introduced into the bladders as indicated above. Treatments of sulfamethoxazole and trimethoprim (SMZ/TMP), asiatic acid, and combination of SMZ/TMP and asiatic acid was evaluated.
3 mice received asiatic acid by orally at approximately 25 milligram per kilogram twice a day beginning one day prior to infection each day during the experiment. Asiatic acid was prepared in 50% Labrasol®. 5 mice received SMZ/TMP in their drinking water at a concentration of 270 micrograms of SMZ per millilter and 54 micrograms of TMP per milliliter immediately after infection throughout the experiment. 5 mice received asiatic acid and SMZ/TMP in combination dosed according to the individual dosing groups. The experiment was performed for approximately 2 days after inoculation. […] The bladders were removed and colony forming units (CFU) were determined as previously described by Justice, S. et al.

Compound: C[C@H]1[C@H](C)CC[C@]2(C(=O)O)CC[C@]3(C)C(=CC[C@@H]4[C@@]5(C)C[C@@H](O)[C@H](O)[C@@](C)(CO)[C@@H]5CC[C@]43C)[C@H]12 [Asiatic acid]
- inhibition at 40 µg/mL (S. sobrinus 6715): > 75%
- average detachment of mature biofilms [1]: approximately 50%
- reduced invasion of E. coli into bladder epithelial cells [2]: 87%
- reduction in biofilm pods or IBCs in the bladders of mice (E. coli UT189[pCOMGFP]; experiment 1: C3H/HeN mice, 40 μg/ml intravesical with 30 min pre-incubation, 10^8 CFU, five hours): 77%
- reduction in large biofilm pods or large IBCs in the bladders of mice (E. coli UT189[pCOMGFP]; experiment 2: C3H/HeN mice, 40 μg/ml in inoculum, no pre-incubation, 10^7 CFU, six hours): ~60%
- MIC [3]: > 64 µg/mL
- MIC [4]: > 64 µg/mL
- MIC (E. coli (ATCC 25922)): > 64 µg/mL
- bladder CFU (E. coli UTI89[pCOMGFP]; combination of SMZ/TMP and asiatic acid): 2.3×10^4 CFU
- bladder CFU (E. coli UTI89[pCOMGFP]; single treatment (asiatic acid 25 mg/kg oral twice a day; SMZ/TMP 270/54 micrograms per ml in drinking water)): 2.9×10^3 CFU
